Experimental data: publication PMC5907308, “21st Brazilian Diabetes Society Congress” (Diabetology & Metabolic Syndrome, 2018)
Where two headings read alike, the source gives them in different places.

Legend:
[1] = test system: Gram-positive; test: Antibiogram of tissue fragment cultures of infected diabetic foot ulcers, Gram-positive; assay type: cell-based; details: 51 cultures of tissue fragment, WHONET 5.6, Graphic 2
From the text: DFU patients with tissue fragment culture and antibiogram were included in the study sample. Microbiota resistance profile analyzed through WHO freeware softwares BACLINK 2.0 and WHONET 5.6.

[2] = test system: Slc2a4/GLUT4 expression in 3T3-L1 cell line adipocytes; test: Slc2a4/GLUT4 expression in adipocytes (Western blotting, RTqPCR); assay type: cell-based; details: 24 h; E2 10 nM; PPT 10 nM; DPN 100 nM, in the presence or absence of E2
Method: It is known that estradiol (E2) via its receptors, ER-alpha and ER-beta, regulates the gene expression through direct binding to DNA, or through interactions with transcription factors, among them SP1 (Sp1 transcription factor). […] Thus, the role of SP1 in the expression of estradiol-mediated Slc2a4/GLUT4 in 3T3-L1 cell line adipocytes was evaluated in an attempt to understand the role of each estradiol receptors in this regulation. For this, the adipocytes were treated with 10 nM estradiol plus 0.05% DMSO (used to solubilize the ER agonists) for 24 h. Cells were also cultured with selective agonists of the different ER isoforms. To evaluate the ER-alpha, the PPT was used, in the concentration of 10 nM, with or without 10 nM of E2 (10E2 + PPT); to evaluate the ER-beta, the DPN was used in the concentration of 100 nM, with or without 10 nM of E2 (10E2 + DPN); always for 24 h. In the control group (0E2), cells were treated with only 0.05% DMSO (vehicle of agonists). The analyzes were: quantification of total GLUT4 protein, nuclear SP1 and nuclear ER-alpha/beta (Western blotting); expression of the Slc2a4 and Sp1 (RTqPCR) genes; and binding activity of the ERs to the SP1 binding site on the Slc2a4 promoter (electrophoretic mobilization, EMSA). Treatment with E2 increased the expression of Slc2a4/GLUT4. […] However, it was observed that both ERalpha and ER-beta activation increased the nuclear content of the transcription factor SP1, however, only the ER-alpha effect, especially isolated, seems to involve SP1 in the observed regulation.

[3] = test system: patient with type 2 diabetes; details: in vivo
Method: An overweight person (BMI 37.4 kg/m^2) with a 9-year history of type 2 diabetes had been taking metformin (1 g/day), glyburide (10 mg/day) and vildaglipitin (100 mg/day) for 7 years. They were admitted for elective bariatric surgery and stopped their medications a day before. […] It is known that there are some factors that contribute for DKA, like decreasing in-carbohydrate intake, infection or reduction of insulin therapy.

[4] = test system: C57BL/6 mice
Method: Methods: C57BL/6 mice received vehicle or dapagliflozin (1, 5 or 10 mg/kg) by gavage once a day for 2 weeks. Body weight and food intake were evaluated at treatment times 0, 7 and 14 days. At the end of the treatment, glucose tolerance was evaluated by ipGTT as well as epididymal adipose tissue weight and neurotransmitters by immunofluorescence.

[5] = test system: patient with type 2 diabetes mellitus
Method: Case report: M.G.G.A, person, married, sought an endocrinologist in 2014 due to the diagnosis of type 2 diabetes mellitus 3 years ago, they used glimeperide 4 mg/day and metformin (MTF) 1 g/day. They were hypertensive and dyslipidemic, already under treatment, and reported difficulty in losing and maintaining weight for several years. They denied physical activity (PA) practice for 1 month (before walking 3x/week) and in a 24-hour diet reminder there was an excess of simple carbohydrate (SC) intake and saturated fat (SF). […] The patient was oriented to change their lifestyle and it was also requested exams. […] At this time, due financial limitation, they were directed to maintain medications, prescribed vitamin D3 14,000 IU/week and stimulated lifestyle change (LC).

[6] = test system: patients with DM1
Method: Methods: Observational and retrospective study in which they were analysed the medical recordo f patients with DM1 who made use of this medication in dose of 10 mg/day through 3-6 months.

[7] = test system: healthy and non-diabetic women; details: after 7 days
Method: Methods: Twenty healthy and non-diabetic women (19–37 years old) were evaluated at baseline and 7 days after dapagliflozin (10 mg/day), maintaining their regular lifestyle. Body mass index (BMI), sagittal abdominal diameter, body composition by electrical bioimpedance and energy expenditure of resting and oxidation of energetic substrates in fasting by indirect calorimetry were analyzed. Functional magnetic resonance imaging detected the activation of brain areas against the stimulation of glucose and dapagliflozin. From the oral glucose tolerance test (TTOG), insulin sensitivity, hepatic insulin extraction and beta-cell function were assessed by mathematical modeling. Moreover, glucose, insulin, peptide C, glucacon, glycated hemoglobin, adiponectin and free fatty acids were measured.

[8] = test system: patients after Roux-en-Y gastric bypass; test: Postprandial hyperinsulinemic hypoglycemia after RYGB, case series; assay type: in vivo, human; details: Case 1
Method: Cases report: Case (1) A person developed postprandial hypoglycemic episodes 6 years after Roux-en-Y gastric bypass (RYGB). A mixed meal tolerance test (MMTT, 500 kcal, 20% protein, 20% fat and 60% carbohydrates) was performed, leading to symptomatic postprandial hyperinsulinemic hypoglycemia (PHH) with a nadir of 45 mg/dL at 120 min (insulin of 8 mU/L; C-peptide of 3.21 ng/mL). […] Cases 2 and 3). Two […] women presented hypoglycemia following meals 3 and 5 years after RYGB. MMTT (120 min): glycemia of 34 mg/dL, insulin of 17 mU/L and C-peptide of 6.23 ng/mL and, in the second one, glycemia of 52 mg/dL, insulin of 9 mU/L and C-peptide of 2.7 ng/mL. PT and MRCP were normal in both cases. […] Case 4). A person who underwent RYGB 1.5 years ago reported hypoglycemic episodes in the last 6 months. MMTT: glycemia of 26 mg/dL at 150 min, insulin of 34 mU/L and C-peptide of 6.03 ng/mL. […] They were submitted to distal pancreatectomy and symptoms disappeared after diazoxid and hydrochlorothiazide. Case 5). A person developed hypoglycemia 10 years after RYGB. […] MMTT: glycemia of 43 mg/dL at 120 min, insulin of 100 mU/L and C-peptide of 1.95 ng/mL. […] Antiinsulin antibodies were negative in all cases (Table 1).

[9] = test system: patient with T2DM; assay type: in vivo; details: systemic treatment
[10] = test system: participants with T2DM; test: Vitamin D supplementation, randomized placebo-controlled trial, oxidative stress biomarkers; assay type: in vivo, human
Method: Methods: The participants (n = 31; age 46 ± 6.45 years; sex 21/10 female/male) with T2DM were enrolled in this study in two groups. One group received one capsule/week of vitamin D (50.000 U) or placebo for 90 days. At the beginning and after intervention, laboratory analyses (biochemical and OS markers) were performed. After fasting for 12 h, the subjects underwent the following laboratory blood analysis: glucose, lipid profile, uric acid, and C-reactive protein (CRP) which were evaluated by a biochemical autoanalyzer (Dimension Dade AR; Dade Behring), insulin and vitamin D were evaluated by MEIA (AxSYM, Abbott Laboratory, Abbott Park, IL, USA). Advanced oxidation protein products (AOPP) were determined in the plasma using the semiautomated method described by Witko-Sarsat. Analysis of plasma hydroperoxide concentrations was evaluated by two methods (tertbutyl hydroperoxide-initiated chemiluminescence and FOX assay). This study was conducted according to the principles of the Helsinki, and the study protocol was approved by the ethics committee of the University (CAAE: 41718014.9.0000.5231). Kruskal- Wallis with post hoc Dunn’test was performed to verify differences across intervention (placebo or vitamin D). Graph Pad Instat 3 version was used for evaluations.

[11] = test system: patient with BSCL; test: Case report: metreleptin in Berardinelli-Seip congenital lipodystrophy; assay type: in vivo, human
Method: Case presentation: Two brothers with neonatal diagnosis of Berardinelli-Seip Congenital Lipodystrophy (BSCL), without cases of diabetes or similar diseases in their family. Clinically, both present muscular hypertrophy and acromegaloid features. […] Serum leptin 1 ng/mL (reference range: 2–18). […] Leptin 1.3 ng/mL. In 2016, HbA1C 7.8%, in use of Metformin 2 g/day, pioglitazone and vitamins E, A and D supplementation. […] By that time, Metreleptin was initiated at a 5 mg/day dose (0.07 mg/kg/day) and Metformin was maintained. After 3 months, the patient has HbA1C 5%, triglyceride level 70 mg/dL, TGO 42 U/L and TGP 32 U/L.

[12] = test system: child with CGL type 2; test: Case report: high doses of insulin in congenital generalized lipodystrophy; assay type: in vivo, human; details: continuous IV infusion of RI raised to 26.6 IU/kg/day
Method: Case: Child with clinical diagnosis of CGL type 2 and diagnosis of diabetes for 1 year. Using Glargina and Lispro insulin basal/bolus (5.1 IU/kg/day) presented mean daily capillary glycemia above 600 mg/dl, associated with irritability, low weight and voracious appetite. Interned for intravenous insulin therapy and nutritional adjustment with standardized diet of 1600 kcal/day fractionated in 7 meals. Initiated continuous infusion of regular insulin (RI), 6.1UI/kg/day. […] Subsequently, it was modified to intramuscular administration, in 5 application times, without differences in glycemic averages. On the 36 th day, Degludeca insulin was introduced (9.3 IU/kg/day) associated with RI (18.2 U/kg/day), evolving within the first 24 h with improved glycemia (180 ± 42 mg/dl). […] After approximately fivefold increase in the initial insulin dose, there was improvement in glycemia, irritability, weight gain and decreased appetite.

CO/N=C(\C(=O)N[C@@H]1C(=O)N2C(C(=O)O)=C(CSc3nc(=O)c(=O)[nH]n3C)CS[C@H]12)c1csc(N)n1 [Ceftriaxone] was tested, and the “%R (resistance), Gram-positive” value [1] was 70%.

With N#CC(Cc1ccc(O)cc1)c1ccc(O)cc1 (centres unmarked) [DPN] the Slc2a4/GLUT4 expression [2] was “decreased”.

CCOc1ccc(Cc2cc([C@@H]3O[C@H](CO)[C@@H](O)[C@H](O)[C@H]3O)ccc2Cl)cc1 [Dapaglifozin, dapagliflozin] was tested, and the “arterial pH at readmission” value [3] was 7.23, the bicarbonate at readmission [3] was 5 mEq/L and the glucose at readmission [3] was 165 mg/dL. For the same molecule, the “body weight gain (mean)” value ([4]; 1, 5 or 10 mg/kg, 2 weeks, p < 0.05) was 0.56 ± 1.1 g, the food intake ([4]; 2 weeks) was “did not alter food intake significantly” and the “fasting glycemia (mean)” value ([4]; 2 weeks, p < 0.05) was 165.6 ± 28.8 mg/dL. The “epididymal adipose mass (mean)” value ([4]; 2 weeks, p = 0.13) was 0.15 ± 0.02 g, the “area under glucose curve during the glucose tolerance test (mean)” value ([4]; ipGTT, p < 0.05) was 28,078 ± 5623.5 arbitrary units and the “glycosuria (mean)” value ([4]; min = 30, max = 1221, p < 0.05) was 307.2 mg/dL. For the same molecule, the “weight (W)” value ([5]; 9 months of DAPA 10 mg/day and MTF 1 g/day, 78.6 kg before) was 69.9 kg, the BMI ([5]; 9 months, 33.14 before) was 29.47 kg/m^2 and the “abdominal circumference (AC)” value ([5]; 9 months, 108 cm before) was 98 cm. For the same molecule, the “postprandial glycemia (PPG)” value ([5]; 9 months, 163 before) was 152 mg/dL, the “fasting glycemia (FG)” value ([5]; 9 months, 166 before) was 118 mg/dL and the Hb1Ac ([5]; 9 months, […] before) was 7.0%. The HbA1c ([5]; during 3 years of follow-up) was “around 6.8%”, the “weight (W)” value ([5]; during 3 years of follow-up) was 69 kg and the “average BMI after treatment” value ([6]; 26.1 before, p = 0.002) was 25.4 kg/m^2. For the same molecule, the “systolic blood pressure, median after therapy” value ([6]; 120 mmHg before, p = 0.02) was 115 mmHg, the patients with ketoacidosis ([6]; in vivo) was 8.3% and the “patients with pain or pruritus on genital region” value ([6]; in vivo) was 33.3%. The “patients with urinary tract infection (UTI)” value ([6]; n = 12) was 8.3%, the “average weight after therapy” value ([6]; n = 12, 68.3 kg before, p = 0.002) was 65.3 kg and the adiponectin levels ([7]; 3.2 ± 1.4 at baseline, p = 0.02) was 5.7 ± 3.3 µg/mL. The insulinemia ([7]; 5.7 ± 3.6 at baseline, p = 0.05) was 3.9 ± 3.5 mU/mL, the BMI ([7]; 21.7 ± 2.0 at baseline, p = 0.05) was 21.5 ± 2.0 kg/m^2 and the fat percentage ([7]; 28.4 ± 6.3 at baseline, p = 0.46) was 27.6 ± 4.0%. It also gave a glycemia ([7]; 75 ± 7 at baseline, p = 0.02) of 71 ± 7 mg/dL.

With C[C@]12CC[C@@H]3c4ccc(O)cc4CC[C@H]3[C@@H]1CC[C@@H]2O [E2, estradiol] the Slc2a4/GLUT4 expression [2] was “increased”.

For CC[C@H]1OC(=O)[C@H](C)[C@@H](O[C@H]2C[C@@](C)(OC)[C@@H](O)[C@H](C)O2)[C@H](C)[C@@H](O[C@@H]2O[C@H](C)C[C@H](N(C)C)[C@H]2O)[C@](C)(O)C[C@@H](C)C(=O)[C@H](C)[C@@H](O)[C@]1(C)O [Erythromycin], the “%R (resistance), Gram-positive” value [1] was 70%.

In the case of Cc1onc(-c2ccccc2)c1C(=O)N[C@@H]1C(=O)N2[C@@H]1SC(C)(C)[C@@H]2C(=O)O [Oxacillin], the “%R (resistance), Gram-positive” value [1] was 70%.

For CCCc1c(-c2ccc(O)cc2)nn(-c2ccc(O)cc2)c1-c1ccc(O)cc1 [PPT], the Slc2a4/GLUT4 expression [2] was “increase”.

CC1=Nc2ccc(Cl)cc2S(=O)(=O)N1 [diazoxid] was tested, and the “clinical response of postprandial hypoglycemia” value [8] was “hypoglycemia was avoided”.

CCN(CC)CC#CCOC(=O)C(O)(c1ccccc1)C1CCCCC1 (centres unmarked) [oxybutynin] was tested, and the “response of gustatory sweating” value [9] was “excellent response as early as week 1” and the side effect [9] was “mild side effect of xerostomia”.

With C=C1CC[C@H](O)C/C1=C/C=C1\CCC[C@]2(C)[C@@H]([C@H](C)/C=C/[C@H](C)C(C)C)CC[C@@H]12 [vitamin D] the “hydroperoxides levels vs placebo group” value ([10]; 50.000 U/week, 90 days, p = 0.008) was “significant reduction”, the “FOX levels vs placebo group” value ([10]; 50.000 U/week, 90 days, p = 0.08) was “trend to decrease” and the “AOPP vs placebo group” value ([10]; one capsule/week 50.000 U for 90 days, plasma, p = 0.05) was “significant reduction”.

In the case of “Metreleptin: a recombinant leptin analog”, the HbA1C ([11]; 3 months of Metreleptin 5 mg/day with Metformin, […] before) was 5%, the TGO ([11]; after 3 months) was 42 U/L and the TGP ([11]; after 3 months) was 32 U/L.

For RI: regular insulin, the mean capillary glycemia [12] was 283 ± 99 mg/dL.
